Results from patent US20080153886A1, “Use Of Heterocyclic Compounds As Neurogenic Agents” (NEUROPHARMA, S.A., priority 2005, published 2008).

System: Neurospheres of the cerebral cortex and hippocampus of 2-day-old postnatal rats
Assay: Neurosphere differentiation test (immunofluorescence with anti-GFAP / anti-MAP2 antibodies)
Format: cell-based, rat
Settings: neurospheres grown 7 days in suspension with compound, 24 h on polylysine slides; versus basal (no compound); confocal images
Procedure: Neurospheres of the cerebral cortex and hippocampus of 2-day-old postnatal rats were grown in suspension culture for 7 days in the presence or absence of a formula (I) compound according to the invention, after which they were transferred to slides covered with polylysine and 24 h later (once adhered) immunofluorescence analyses were performed with anti-GFAP antibodies to view the astrocyte differentiation, or with anti-MAP2 to view neuronal differentiation. The images were captured on a TCS SP2 confocal microscope (Leica Microsystems).

Structure (SMILES) | astrocyte differentiation of cells present in isolated neurospheres (anti-GFAP immunofluorescence) | neuronal differentiation of cells present in isolated neurospheres (anti-MAP2 immunofluorescence)
O=c1sn(Cc2ccccc2)c(=O)n1Cc1ccccc1 [compound [1], 2,4-dibenzyl-[1,2,4]thiadiazolidine-3,5-dione] | induces | induces
O=c1sn(-c2cccc3ccccc23)c(=O)n1Cc1ccccc1 [compound [2], 4-benzyl-2-naphthalene-1-yl-[1,2,4]thiadiazolidine-3,5-dione] | induces | induces
O=c1sn(C(c2ccccc2)c2ccccc2)c(=O)n1Cc1ccccc1 [compound [3], 2-Benzhydryl-4-benzyl-[1,2,4]thiadiazolidine-3,5-dione] | induces | induces
O=c1sn(-c2ccc(Oc3ccccc3)cc2)c(=O)n1Cc1ccccc1 [compound [4], 4-benzyl-2-(4-phenoxy-phenyl)-[1,2,4]thiadiazolidine-3,5-dione] | induces | induces
